# According to patent publication US11925632B2, “Isoquinoline derivatives for use in treating GLUT1 deficiency syndrome” (GLIAPHARM SA, priority 2019, dated 2024):
# Legend:
# C57Bl/6 wild-type mice = assay: Long-term memory test, inhibitory avoidance (IA); format: in vivo, mouse
# Description: For pharmacodynamics (FIG. 5) and cognition (FIG. 7) experiments, adult male C57Bl/6J wild-type mice weighting 18-28 g (8 weeks of age) were used (Charles River). For ALS mouse models (FIG. 6), G93A SOD1 transgenic male and female mice on B6.SJL1-Gur/J background were used (Jackson Laboratory).
# Animals were housed in groups of 3-5 in polypropylene cages (30×40×15 cm) with wire mesh top in a temperature (22±2° C.) and humidity (55±15%) controlled environment on a 12 hour light cycle (07.00-19.00 h lights on), except after surgeries when animal were housed individually. The samples (Vehicle or compounds of the invention) were administered per os (gavage) in a solution made of water supplemented with 0.4% hydroxypropyl methylcellulose (HPMC) Methocel 4KM (w/v) and 0.25% Tween-20 (v/v), as previously described (Thackaberry et al., 2010, Toxicol Sci., 117(2):485-92). Concentrations of the compounds tested ranged from 10 to 100 mg/kg.
# IA test is a well-established memory paradigm in rodents that measures contextual memory associated with a mild electrical footshock in a specific context (the dark compartment of the IA chamber). Groups of 8-week old C57Bl/6 wild-type female mice were tested. Each mouse was handled for 5 minutes per day for at least 4 consecutive days to reduce animal's stress due to experimenter's presence/manipulation during test days. Inhibitory avoidance was carried out in an IA chamber (MedAssociates) that consists in a rectangular Perspex box divided into a safe and a shock compartment separated by an automatically operated sliding door. […] Memory retention was measured at 24 h or 3 weeks after training by placing the mouse back into the lit compartment and recording its latency (in seconds) to enter the dark compartment. […]
# Memory was measured after oral administration of vehicle or compound (1) (100 mg/kg) to young adult male mice orally, and 20 min later a training for IA (FIG. 7). 24 hours and 3 weeks after training, latencies of mice to enter back into the dark compartment of the IA chamber, the place where they received the shock, were measured.
# GLUT1-DS mice = assay: Rotarod motor function in GLUT1-DS transgenic mice; format: in vivo, mouse; settings: 10 mg/kg oral daily for 19 days
# Description: Transgenic mice on 129/SvJ genetic background in which GLUT1 has been knocked-down (GLUT1-DS mice) were used (Wang et al., […], Human Molecular Genetics, 15(7)). Mating colonies were composed of wild-type female mice and GLUT1-DS male mice, or GLUT1-DS female mice and wild-type male mice. F1 pups were genotyped after ear punching at weaning using PCR to determine genotype. Mice of 2 to 3 months of age were used.
# Motor function was measured in wild-type (WT) and GLUT1-DS transgenic mice in the rotarod after 19-day long treatment with Veh. or Compound (1). Mice were administered every day orally vehicle or Compound (1) at a dose of 10 mg/kg. After 14 days of treatment, mice were exposed to rotarod training, which consisted in placing the mouse on an accelerating rotarod (4 to 40 r.p.m.) during 300 seconds. Mice that felt down before training ended, or at the end of training (300 seconds), were removed and put back to their cages. Training took place over 4 consecutive days, and on each training day mice performed 3 consecutive trials with 15 min inter-trial duration. One day after the last training (on the fifth day), mice were tested on the rotarod. Testing consisted in placing mice on the rotarod at a constant speed of 25 r.p.m. Latencies of mice before falling down were recorded.
# [1] = single dose 100 mg/kg oral before training, vs vehicle
structure (smiles),measurement,setting,value
"COc1cc2ccnc(Nc3ccc(OC(F)(F)F)cc3)c2cc1OC [Example 1, 6,7-dimethoxy-N-(4-(trifluoromethoxy)phenyl)isoquinolin-1-amine]",Latency to enter the dark compartment at training,"C57Bl/6 wild-type mice; 100 mg/kg oral, 20 min before training",same latencies at training
same,"Latency to enter the dark compartment, 3 weeks after training",C57Bl/6 wild-type mice; [1],significantly higher
same,"Latency to enter the dark compartment, 24 h after training",C57Bl/6 wild-type mice; [1],significantly higher
same,"Rotarod performance (latency before falling, 25 r.p.m.)",GLUT1-DS mice,increased rotarod performance
